Data from the NIST ThermoML archive (doi:10.1021/acs.jced.5b00251).

Test: refractive index (other wavelength) (dimensionless); xn = mol fraction of the nth substance listed
Conditions: 101 kPa, Liquid, Standard Abbe refractometry

c1ccc2c(c1)CCCC2 [1,2,3,4-tetrahydronaphthalene] + CCCCCCCCCCCC
refractive index
Conditions | x1 = 0.1014 | x1 = 0.2024 | x1 = 0.3032 | x1 = 0.4036 | x1 = 0.5038 | x1 = 0.6036 | x1 = 0.7032 | x1 = 0.8024 | x1 = 0.9014
293.15 K, Wavelength=436.1 nm | 1.44127 | 1.45203 | 1.46314 | 1.47515 | 1.48812 | 1.50126 | 1.51481 | 1.52971 | 1.54558
293.15 K, Wavelength=513.9 nm | 1.43473 | 1.44489 | 1.45538 | 1.46671 | 1.47843 | 1.49106 | 1.50417 | 1.51804 | 1.53275
293.15 K, Wavelength=589.3 nm | 1.43105 | 1.44086 | 1.45101 | 1.46197 | 1.47329 | 1.48552 | 1.49803 | 1.51156 | 1.52591
293.15 K, Wavelength=633.2 nm | 1.42949 | 1.43917 | 1.44918 | 1.45999 | 1.47113 | 1.48318 | 1.49553 | 1.50887 | 1.52288
293.15 K, Wavelength=657.2 nm | 1.42878 | 1.43896 | 1.44835 | 1.45921 | 1.47078 | 1.48194 | 1.4944 | 1.50801 | 1.52229
298.15 K, Wavelength=436.1 nm | 1.439 | 1.44978 | 1.46073 | 1.47277 | 1.48561 | 1.49875 | 1.51238 | 1.52724 | 1.54301
298.15 K, Wavelength=513.9 nm | 1.43249 | 1.44267 | 1.4533 | 1.46438 | 1.47612 | 1.48874 | 1.50164 | 1.51563 | 1.53046
298.15 K, Wavelength=589.3 nm | 1.42884 | 1.43868 | 1.44896 | 1.45965 | 1.47078 | 1.48302 | 1.4955 | 1.50927 | 1.52353
298.15 K, Wavelength=633.2 nm | 1.42729 | 1.43699 | 1.44692 | 1.45768 | 1.4689 | 1.4807 | 1.4932 | 1.50652 | 1.52049
298.15 K, Wavelength=657.2 nm | 1.42675 | 1.43623 | 1.44627 | 1.45678 | 1.46851 | 1.47967 | 1.49181 | 1.50529 | 1.5199
303.15 K, Wavelength=436.1 nm | 1.43671 | 1.44738 | 1.45818 | 1.4705 | 1.48295 | 1.49619 | 1.50983 | 1.52452 | 1.54034
303.15 K, Wavelength=513.9 nm | 1.43024 | 1.44033 | 1.45084 | 1.46216 | 1.47359 | 1.48633 | 1.49917 | 1.51321 | 1.52785
303.15 K, Wavelength=589.3 nm | 1.42659 | 1.43636 | 1.44635 | 1.45733 | 1.46841 | 1.48085 | 1.49318 | 1.50685 | 1.52095
303.15 K, Wavelength=633.2 nm | 1.42505 | 1.4347 | 1.44438 | 1.45549 | 1.46668 | 1.47855 | 1.49077 | 1.50415 | 1.51798
303.15 K, Wavelength=657.2 nm | 1.42434 | 1.434 | 1.44387 | 1.45441 | 1.46615 | 1.47729 | 1.48949 | 1.50284 | 1.51741
308.15 K, Wavelength=436.1 nm | 1.43455 | 1.44495 | 1.45589 | 1.46783 | 1.4805 | 1.49371 | 1.50749 | 1.52185 | 1.538
308.15 K, Wavelength=513.9 nm | 1.42811 | 1.43794 | 1.44864 | 1.45985 | 1.47118 | 1.48392 | 1.49684 | 1.51075 | 1.52559
308.15 K, Wavelength=589.3 nm | 1.4245 | 1.434 | 1.44408 | 1.45488 | 1.46618 | 1.47848 | 1.49085 | 1.50425 | 1.51872
308.15 K, Wavelength=633.2 nm | 1.42297 | 1.43234 | 1.44222 | 1.45318 | 1.46436 | 1.4762 | 1.48855 | 1.50145 | 1.51565
308.15 K, Wavelength=657.2 nm | 1.42224 | 1.4316 | 1.44127 | 1.45195 | 1.46385 | 1.47498 | 1.48694 | 1.50013 | 1.51517
313.15 K, Wavelength=436.1 nm | 1.43218 | 1.44283 | 1.45339 | 1.46524 | 1.47822 | 1.49111 | 1.50491 | 1.51939 | 1.5354
313.15 K, Wavelength=513.9 nm | 1.42576 | 1.43568 | 1.44614 | 1.45759 | 1.46885 | 1.48167 | 1.49443 | 1.50825 | 1.52307
313.15 K, Wavelength=589.3 nm | 1.42227 | 1.43177 | 1.44157 | 1.45242 | 1.46372 | 1.47625 | 1.48857 | 1.50166 | 1.51623
313.15 K, Wavelength=633.2 nm | 1.42066 | 1.43026 | 1.43979 | 1.45075 | 1.46185 | 1.47398 | 1.48614 | 1.49928 | 1.51325
313.15 K, Wavelength=657.2 nm | 1.41998 | 1.42919 | 1.439 | 1.44965 | 1.46161 | 1.47245 | 1.48468 | 1.49759 | 1.51275
318.15 K, Wavelength=436.1 nm | 1.43001 | 1.44026 | 1.45084 | 1.46269 | 1.47578 | 1.48857 | 1.50241 | 1.51672 | 1.5331
318.15 K, Wavelength=513.9 nm | 1.42366 | 1.43333 | 1.44405 | 1.45487 | 1.46645 | 1.47929 | 1.49184 | 1.50571 | 1.52083
318.15 K, Wavelength=589.3 nm | 1.42009 | 1.42933 | 1.43955 | 1.44985 | 1.46145 | 1.47389 | 1.48615 | 1.49906 | 1.51403
318.15 K, Wavelength=633.2 nm | 1.41859 | 1.42777 | 1.43785 | 1.44826 | 1.45981 | 1.47165 | 1.48389 | 1.49667 | 1.51123
318.15 K, Wavelength=657.2 nm | 1.41814 | 1.42702 | 1.43701 | 1.44718 | 1.45934 | 1.47014 | 1.48216 | 1.49507 | 1.51044
